Assay results taken from ChEMBL document CHEMBL3393036, “Tetra-substituted pyridinylimidazoles as dual inhibitors of p38α mitogen-activated protein kinase and c-Jun N-terminal kinase 3 for potential treatment of neurodegenerative diseases” (J Med Chem, 2015).

Experiments:
[1] = target: Rho-associated protein kinase 2 (Homo sapiens) (UniProt O75116); assay: Inhibition of ROCK2 (unknown origin) at 5.5 uM by Caliper Mobility Shift Assay
[2] = target: Protein kinase C theta type (Homo sapiens) (UniProt Q04759); assay: Inhibition of PRKCQ (unknown origin) at 5.5 uM by Caliper Mobility Shift Assay
[3] = target: Mitogen-activated protein kinase kinase kinase 8 (Homo sapiens) (UniProt P41279); assay: Inhibition of MAP3K8 (unknown origin) at 5.5 uM by Caliper Mobility Shift Assay
[4] = target: Fibroblast growth factor receptor 3 (Homo sapiens) (UniProt P22607); assay: Inhibition of FGFR3 (unknown origin) at 5.5 uM by Caliper Mobility Shift Assay
[5] = target: MAP kinase-interacting serine/threonine-protein kinase 1 (Homo sapiens) (UniProt Q9BUB5); assay: Inhibition of MKNK1 (unknown origin) at 5.5 uM by Caliper Mobility Shift Assay
[6] = target: Epidermal growth factor receptor (Homo sapiens) (UniProt P00533); assay: Inhibition of EGFR (unknown origin) assessed as phosphorylation of ATF-2 at 5.5 uM by ELISA
[7] = target: Tyrosine-protein kinase Lyn (Homo sapiens) (UniProt P07948); assay: Inhibition of LYN (unknown origin) at 5.5 uM by Caliper Mobility Shift Assay
[8] = organism: Homo sapiens; assay: Inhibition of PRKACA(PKA) (unknown origin) at 5.5 uM by Caliper Mobility Shift Assay
[9] = target: Mitogen-activated protein kinase 1 (Homo sapiens) (UniProt P28482); assay: Inhibition of MAPK1 (ERK2) (unknown origin) at 5.5 uM by Caliper Mobility Shift Assay
[10] = target: T1, Activin receptor type-1 (Homo sapiens) (UniProt Q04771); assay: Inhibition of ALK2 (unknown origin) assessed as phosphorylation of ATF-2 at 5.5 uM by ELISA
T1 sequence (whole entry): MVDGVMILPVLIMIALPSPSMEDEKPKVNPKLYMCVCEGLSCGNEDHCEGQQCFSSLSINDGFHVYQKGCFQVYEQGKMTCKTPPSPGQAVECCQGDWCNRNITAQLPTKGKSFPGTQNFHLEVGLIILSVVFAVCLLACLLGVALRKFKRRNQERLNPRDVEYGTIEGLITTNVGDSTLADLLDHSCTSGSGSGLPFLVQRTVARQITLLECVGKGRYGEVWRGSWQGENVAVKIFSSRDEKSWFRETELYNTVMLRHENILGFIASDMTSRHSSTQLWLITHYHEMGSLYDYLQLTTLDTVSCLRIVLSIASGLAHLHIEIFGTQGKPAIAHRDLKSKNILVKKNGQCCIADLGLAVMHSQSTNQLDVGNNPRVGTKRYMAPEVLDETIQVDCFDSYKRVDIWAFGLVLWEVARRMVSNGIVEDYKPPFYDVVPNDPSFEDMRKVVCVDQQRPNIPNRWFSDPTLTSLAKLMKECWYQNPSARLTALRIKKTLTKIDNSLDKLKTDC

[11] = target: Proto-oncogene tyrosine-protein kinase receptor Ret (Homo sapiens) (UniProt P07949); assay: Inhibition of RET (unknown origin) at 5.5 uM by Caliper Mobility Shift Assay
[12] = target: T2, Serine/threonine-protein kinase 4 (Homo sapiens) (UniProt Q13043); assay: Inhibition of STK4 (unknown origin) at 5.5 uM by Caliper Mobility Shift Assay
T2 sequence (whole entry): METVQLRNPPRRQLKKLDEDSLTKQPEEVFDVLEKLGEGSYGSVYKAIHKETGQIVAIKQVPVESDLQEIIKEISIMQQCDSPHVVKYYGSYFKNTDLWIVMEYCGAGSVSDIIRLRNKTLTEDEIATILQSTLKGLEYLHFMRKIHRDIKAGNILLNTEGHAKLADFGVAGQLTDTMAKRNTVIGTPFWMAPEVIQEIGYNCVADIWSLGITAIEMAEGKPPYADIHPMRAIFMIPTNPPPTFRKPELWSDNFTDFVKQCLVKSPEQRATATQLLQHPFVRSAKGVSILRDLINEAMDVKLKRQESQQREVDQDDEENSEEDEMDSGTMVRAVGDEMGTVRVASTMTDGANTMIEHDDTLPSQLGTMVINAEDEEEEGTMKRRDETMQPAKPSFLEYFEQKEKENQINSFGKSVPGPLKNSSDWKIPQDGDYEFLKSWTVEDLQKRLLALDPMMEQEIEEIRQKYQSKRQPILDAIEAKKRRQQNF

Proto-oncogene tyrosine-protein kinase receptor Ret (Homo sapiens), sequence (P07949 whole entry): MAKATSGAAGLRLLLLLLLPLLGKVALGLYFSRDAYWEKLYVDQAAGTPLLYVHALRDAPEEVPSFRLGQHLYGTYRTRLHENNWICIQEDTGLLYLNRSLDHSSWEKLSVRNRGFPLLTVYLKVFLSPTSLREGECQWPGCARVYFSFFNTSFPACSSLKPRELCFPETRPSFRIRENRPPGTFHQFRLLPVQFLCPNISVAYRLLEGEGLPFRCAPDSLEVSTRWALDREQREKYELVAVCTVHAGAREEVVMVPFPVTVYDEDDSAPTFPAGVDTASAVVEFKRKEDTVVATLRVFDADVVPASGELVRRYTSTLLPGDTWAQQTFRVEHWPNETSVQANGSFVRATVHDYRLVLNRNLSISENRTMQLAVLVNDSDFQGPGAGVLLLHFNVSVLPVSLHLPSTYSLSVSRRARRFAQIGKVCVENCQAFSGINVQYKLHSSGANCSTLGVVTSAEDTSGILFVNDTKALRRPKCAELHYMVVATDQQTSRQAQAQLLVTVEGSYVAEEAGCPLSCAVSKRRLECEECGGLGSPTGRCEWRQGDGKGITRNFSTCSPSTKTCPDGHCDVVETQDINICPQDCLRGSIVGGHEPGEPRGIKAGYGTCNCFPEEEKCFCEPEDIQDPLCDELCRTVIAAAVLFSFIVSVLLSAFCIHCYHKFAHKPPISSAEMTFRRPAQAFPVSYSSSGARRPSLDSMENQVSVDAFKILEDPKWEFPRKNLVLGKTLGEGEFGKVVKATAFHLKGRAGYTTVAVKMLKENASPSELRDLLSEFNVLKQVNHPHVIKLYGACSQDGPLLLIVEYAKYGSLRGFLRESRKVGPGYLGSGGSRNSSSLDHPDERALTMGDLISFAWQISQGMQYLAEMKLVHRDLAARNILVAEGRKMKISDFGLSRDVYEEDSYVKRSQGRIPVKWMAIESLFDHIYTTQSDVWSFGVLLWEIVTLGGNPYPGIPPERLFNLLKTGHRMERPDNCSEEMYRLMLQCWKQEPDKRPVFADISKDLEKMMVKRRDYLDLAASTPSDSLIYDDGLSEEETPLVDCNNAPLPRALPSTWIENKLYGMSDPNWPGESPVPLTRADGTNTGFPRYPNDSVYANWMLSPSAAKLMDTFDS
Mitogen-activated protein kinase kinase kinase 8 (Homo sapiens), sequence (P41279 whole entry): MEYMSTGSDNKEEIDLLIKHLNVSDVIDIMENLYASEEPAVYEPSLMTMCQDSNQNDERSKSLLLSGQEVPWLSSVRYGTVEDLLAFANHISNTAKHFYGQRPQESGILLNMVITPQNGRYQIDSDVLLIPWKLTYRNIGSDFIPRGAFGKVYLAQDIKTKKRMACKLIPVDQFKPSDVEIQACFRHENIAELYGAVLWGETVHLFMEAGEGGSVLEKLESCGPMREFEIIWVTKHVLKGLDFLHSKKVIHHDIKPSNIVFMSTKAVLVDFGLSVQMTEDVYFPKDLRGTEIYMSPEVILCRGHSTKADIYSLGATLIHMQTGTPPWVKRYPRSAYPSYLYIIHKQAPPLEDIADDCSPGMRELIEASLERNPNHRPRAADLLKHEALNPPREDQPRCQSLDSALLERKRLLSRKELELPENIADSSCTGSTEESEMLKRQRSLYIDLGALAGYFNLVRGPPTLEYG
Rho-associated protein kinase 2 (Homo sapiens), sequence (O75116 whole entry, looked up): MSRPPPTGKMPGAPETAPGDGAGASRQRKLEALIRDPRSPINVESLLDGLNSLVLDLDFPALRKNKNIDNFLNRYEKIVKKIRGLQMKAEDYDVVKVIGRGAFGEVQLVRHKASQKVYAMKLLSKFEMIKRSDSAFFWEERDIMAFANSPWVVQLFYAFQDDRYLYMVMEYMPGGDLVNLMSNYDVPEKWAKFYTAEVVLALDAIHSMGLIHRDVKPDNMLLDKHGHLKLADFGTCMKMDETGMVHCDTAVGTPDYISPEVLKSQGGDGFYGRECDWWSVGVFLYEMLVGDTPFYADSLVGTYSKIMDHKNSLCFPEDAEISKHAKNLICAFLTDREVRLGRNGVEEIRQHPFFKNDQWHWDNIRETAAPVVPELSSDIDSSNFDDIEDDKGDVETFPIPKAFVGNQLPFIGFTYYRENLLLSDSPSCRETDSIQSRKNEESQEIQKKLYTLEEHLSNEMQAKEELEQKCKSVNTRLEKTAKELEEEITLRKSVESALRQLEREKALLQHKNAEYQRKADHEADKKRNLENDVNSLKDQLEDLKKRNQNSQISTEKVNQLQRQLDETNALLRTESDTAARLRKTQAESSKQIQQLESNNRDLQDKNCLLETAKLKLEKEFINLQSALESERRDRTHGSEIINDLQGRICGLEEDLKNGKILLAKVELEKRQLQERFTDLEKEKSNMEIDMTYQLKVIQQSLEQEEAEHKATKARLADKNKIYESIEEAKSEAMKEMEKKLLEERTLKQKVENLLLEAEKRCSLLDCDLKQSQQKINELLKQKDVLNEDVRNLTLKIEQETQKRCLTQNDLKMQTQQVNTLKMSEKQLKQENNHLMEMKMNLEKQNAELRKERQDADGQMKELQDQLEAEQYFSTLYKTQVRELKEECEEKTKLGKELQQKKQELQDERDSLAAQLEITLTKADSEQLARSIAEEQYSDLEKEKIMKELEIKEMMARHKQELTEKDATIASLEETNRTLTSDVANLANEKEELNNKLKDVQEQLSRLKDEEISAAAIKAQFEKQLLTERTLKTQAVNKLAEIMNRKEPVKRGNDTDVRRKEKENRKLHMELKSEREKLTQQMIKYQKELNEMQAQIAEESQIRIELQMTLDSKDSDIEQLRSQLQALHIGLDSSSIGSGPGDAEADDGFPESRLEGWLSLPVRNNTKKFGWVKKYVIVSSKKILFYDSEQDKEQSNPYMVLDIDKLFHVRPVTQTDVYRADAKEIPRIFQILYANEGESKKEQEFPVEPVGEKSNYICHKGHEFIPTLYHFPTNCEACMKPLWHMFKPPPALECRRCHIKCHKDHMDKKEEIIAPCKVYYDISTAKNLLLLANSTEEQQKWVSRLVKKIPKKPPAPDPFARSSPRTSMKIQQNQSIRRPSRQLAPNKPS
MAP kinase-interacting serine/threonine-protein kinase 1 (Homo sapiens), sequence (Q9BUB5 whole entry, looked up): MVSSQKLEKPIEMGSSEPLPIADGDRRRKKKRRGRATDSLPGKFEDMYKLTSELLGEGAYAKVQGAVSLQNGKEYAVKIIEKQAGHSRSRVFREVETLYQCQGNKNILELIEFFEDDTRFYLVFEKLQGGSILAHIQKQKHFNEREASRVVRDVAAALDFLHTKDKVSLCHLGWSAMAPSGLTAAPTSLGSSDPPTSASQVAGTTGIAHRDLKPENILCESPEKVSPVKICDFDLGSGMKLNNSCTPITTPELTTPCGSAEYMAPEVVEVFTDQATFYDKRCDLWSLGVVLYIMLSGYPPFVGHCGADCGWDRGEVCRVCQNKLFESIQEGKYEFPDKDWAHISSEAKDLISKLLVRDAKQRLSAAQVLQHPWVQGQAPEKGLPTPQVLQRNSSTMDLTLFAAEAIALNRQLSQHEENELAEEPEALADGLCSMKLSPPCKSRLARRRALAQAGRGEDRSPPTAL
Fibroblast growth factor receptor 3 (Homo sapiens), sequence (P22607 23-806 limits assumed): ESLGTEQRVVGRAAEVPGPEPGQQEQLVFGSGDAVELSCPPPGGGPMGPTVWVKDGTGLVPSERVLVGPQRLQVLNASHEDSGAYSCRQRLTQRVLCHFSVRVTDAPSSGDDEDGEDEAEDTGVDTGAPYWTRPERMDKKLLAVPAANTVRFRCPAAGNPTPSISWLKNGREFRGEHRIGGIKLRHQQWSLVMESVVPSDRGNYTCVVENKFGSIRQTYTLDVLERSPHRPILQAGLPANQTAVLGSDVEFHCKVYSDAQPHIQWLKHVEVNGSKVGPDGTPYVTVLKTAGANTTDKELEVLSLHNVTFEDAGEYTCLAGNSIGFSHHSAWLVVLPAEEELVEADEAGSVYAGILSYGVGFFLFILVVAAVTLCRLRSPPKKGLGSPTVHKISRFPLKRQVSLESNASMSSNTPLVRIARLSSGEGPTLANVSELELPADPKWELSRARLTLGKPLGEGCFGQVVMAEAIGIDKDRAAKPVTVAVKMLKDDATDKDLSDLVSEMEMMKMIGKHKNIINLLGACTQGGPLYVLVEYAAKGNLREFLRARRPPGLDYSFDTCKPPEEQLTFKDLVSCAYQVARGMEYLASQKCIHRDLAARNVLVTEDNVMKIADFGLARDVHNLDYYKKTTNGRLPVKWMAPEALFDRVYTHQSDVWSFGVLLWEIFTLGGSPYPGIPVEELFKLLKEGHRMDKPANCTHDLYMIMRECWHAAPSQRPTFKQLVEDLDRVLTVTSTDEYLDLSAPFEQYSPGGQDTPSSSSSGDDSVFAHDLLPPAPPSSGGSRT
Tyrosine-protein kinase Lyn (Homo sapiens), sequence (P07948 2-512 limits assumed): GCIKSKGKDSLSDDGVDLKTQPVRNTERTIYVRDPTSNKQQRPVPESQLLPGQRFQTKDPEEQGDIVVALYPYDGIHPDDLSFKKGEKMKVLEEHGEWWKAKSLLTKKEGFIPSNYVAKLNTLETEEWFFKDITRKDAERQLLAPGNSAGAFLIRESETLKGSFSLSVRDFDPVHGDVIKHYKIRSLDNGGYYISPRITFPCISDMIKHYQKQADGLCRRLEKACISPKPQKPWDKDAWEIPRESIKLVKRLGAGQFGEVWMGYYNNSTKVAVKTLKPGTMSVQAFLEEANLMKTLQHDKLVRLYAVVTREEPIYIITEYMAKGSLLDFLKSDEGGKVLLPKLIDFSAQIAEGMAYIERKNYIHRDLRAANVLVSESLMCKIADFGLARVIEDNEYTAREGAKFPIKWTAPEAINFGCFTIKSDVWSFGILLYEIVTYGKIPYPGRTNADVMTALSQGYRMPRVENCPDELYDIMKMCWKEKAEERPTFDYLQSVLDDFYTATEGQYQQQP

inhibition [1] [%] | inhibition [2] [%] | inhibition [3] [%] | inhibition [4] [%] | inhibition [5] [%] | inhibition [6] [%] | inhibition [7] [%] | inhibition [8] [%] | inhibition [9] [%] | inhibition [10] [%] | inhibition [11] [%] | inhibition [12] [%] | Compound
< 50 | < 50 | < 50 | < 50 | < 50 | 51.8 | < 50 | < 50 | < 50 | 60.6 | < 50 | < 50 | CC(=O)Nc1cc(-c2c(-c3ccc(F)cc3)nc(S/C=C\C(=O)O)n2C2CC2)ccn1
< 50 | < 50 | < 50 | < 50 | < 50 |  | < 50 | < 50 | < 50 |  | < 50 | < 50 | COC(Cn1c(SC2CCC(C(=O)O)CC2O)nc(-c2ccc(F)cc2)c1-c1ccnc(NC(C)=O)c1)OC (configuration not stated)
< 50 | < 50 | < 50 | < 50 | < 50 |  | < 50 | < 50 | < 50 |  | < 50 | < 50 | CC(=O)Nc1cc(-c2c(-c3ccc(F)cc3)nc(S/C=C\C(=O)O)n2C2CCCCC2)ccn1
< 50 | < 50 | < 50 | < 50 | < 50 |  | < 50 | < 50 | < 50 |  | < 50 | < 50 | CC(=O)Nc1cc(-c2c(-c3ccc(F)cc3)nc(S/C=C\C(=O)O)n2CC2CCCO2)ccn1 (racemic)
< 50 | < 50 | < 50 | < 50 | < 50 |  | < 50 | < 50 | < 50 |  | < 50 | < 50 | CC(=O)Nc1cc(-c2c(-c3ccc(F)cc3)nc(Sc3cccc(I)n3)n2C2CCCCC2)ccn1
